The results in this text go back to ChEMBL document CHEMBL4715760, “Balancing potency, metabolic stability and permeability in pyrrolopyrimidine-based EGFR inhibitors” (Eur J Med Chem, 2016).

The target of test [1] is Tyrosine-protein kinase Blk (Homo sapiens) (UniProt P51451). Put plainly: Inhibition of recombinant human His-tagged full length BLK expressed in baculovirus expression system at 500 nM using Tyr 01 peptide as substrate incubated for 1 hr in presence of ATP at its Km concentration by Z'-LYTE assay relative to control.
Sequence of Tyrosine-protein kinase Blk (Homo sapiens) (P51451 2-505 limits assumed): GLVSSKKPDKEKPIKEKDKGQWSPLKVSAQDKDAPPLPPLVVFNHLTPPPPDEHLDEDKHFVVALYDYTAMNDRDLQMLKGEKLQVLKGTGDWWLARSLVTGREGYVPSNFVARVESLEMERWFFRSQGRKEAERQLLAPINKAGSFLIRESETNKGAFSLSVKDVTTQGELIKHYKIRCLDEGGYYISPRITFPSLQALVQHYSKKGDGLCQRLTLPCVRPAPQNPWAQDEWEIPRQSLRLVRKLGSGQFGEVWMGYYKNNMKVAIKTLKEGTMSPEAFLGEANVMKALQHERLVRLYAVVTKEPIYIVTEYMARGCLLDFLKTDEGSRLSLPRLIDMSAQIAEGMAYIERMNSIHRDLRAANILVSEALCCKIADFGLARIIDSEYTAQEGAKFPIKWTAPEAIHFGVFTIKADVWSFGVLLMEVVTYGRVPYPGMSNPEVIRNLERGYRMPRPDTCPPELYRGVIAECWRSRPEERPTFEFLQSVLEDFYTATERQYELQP
The target of test [2] is Serine/threonine-protein kinase B-raf (Homo sapiens) (UniProt P15056). Briefly: Inhibition of recombinant human GST-tagged full length BRAF expressed in baculovirus expression system at 500 nM using Ser/Thr 03 peptide as substrate incubated for 1 hr in presence of 100 uM ATP by Z'-LYTE assay relative to control.
Sequence of Serine/threonine-protein kinase B-raf (Homo sapiens) (P15056 whole entry, the tested form may be a part): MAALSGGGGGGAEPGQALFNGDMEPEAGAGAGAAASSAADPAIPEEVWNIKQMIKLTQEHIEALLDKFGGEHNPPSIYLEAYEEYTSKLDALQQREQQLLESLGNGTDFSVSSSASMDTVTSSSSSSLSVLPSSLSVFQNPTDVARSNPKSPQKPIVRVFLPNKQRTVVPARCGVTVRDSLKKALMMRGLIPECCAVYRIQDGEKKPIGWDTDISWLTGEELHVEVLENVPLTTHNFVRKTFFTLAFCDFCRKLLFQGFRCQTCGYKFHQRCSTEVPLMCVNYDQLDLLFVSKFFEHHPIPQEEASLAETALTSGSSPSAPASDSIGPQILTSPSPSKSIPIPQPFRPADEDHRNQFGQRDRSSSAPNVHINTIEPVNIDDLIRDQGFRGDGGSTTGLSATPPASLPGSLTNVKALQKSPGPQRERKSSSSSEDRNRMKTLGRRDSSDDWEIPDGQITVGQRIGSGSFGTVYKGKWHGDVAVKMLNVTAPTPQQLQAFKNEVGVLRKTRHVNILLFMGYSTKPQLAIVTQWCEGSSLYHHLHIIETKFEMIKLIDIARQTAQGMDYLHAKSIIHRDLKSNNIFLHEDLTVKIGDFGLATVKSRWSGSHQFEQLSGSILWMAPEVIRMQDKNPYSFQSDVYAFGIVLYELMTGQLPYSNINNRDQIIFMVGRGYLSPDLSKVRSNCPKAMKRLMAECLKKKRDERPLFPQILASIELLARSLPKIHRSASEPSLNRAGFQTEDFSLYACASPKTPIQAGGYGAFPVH
The target in test [3] is Tyrosine-protein kinase Fer (Homo sapiens) (UniProt P16591). Put plainly: Inhibition of recombinant human GST-tagged FER (541 to 822 residues) expressed in baculovirus expression system at 500 nM using Tyr 05 peptide as substrate incubated for 1 hr in presence of ATP at its Km concentration by Z'-LYTE assay relative to control.
Sequence of Tyrosine-protein kinase Fer (Homo sapiens) (P16591 whole entry, looked up, the tested form may be a part): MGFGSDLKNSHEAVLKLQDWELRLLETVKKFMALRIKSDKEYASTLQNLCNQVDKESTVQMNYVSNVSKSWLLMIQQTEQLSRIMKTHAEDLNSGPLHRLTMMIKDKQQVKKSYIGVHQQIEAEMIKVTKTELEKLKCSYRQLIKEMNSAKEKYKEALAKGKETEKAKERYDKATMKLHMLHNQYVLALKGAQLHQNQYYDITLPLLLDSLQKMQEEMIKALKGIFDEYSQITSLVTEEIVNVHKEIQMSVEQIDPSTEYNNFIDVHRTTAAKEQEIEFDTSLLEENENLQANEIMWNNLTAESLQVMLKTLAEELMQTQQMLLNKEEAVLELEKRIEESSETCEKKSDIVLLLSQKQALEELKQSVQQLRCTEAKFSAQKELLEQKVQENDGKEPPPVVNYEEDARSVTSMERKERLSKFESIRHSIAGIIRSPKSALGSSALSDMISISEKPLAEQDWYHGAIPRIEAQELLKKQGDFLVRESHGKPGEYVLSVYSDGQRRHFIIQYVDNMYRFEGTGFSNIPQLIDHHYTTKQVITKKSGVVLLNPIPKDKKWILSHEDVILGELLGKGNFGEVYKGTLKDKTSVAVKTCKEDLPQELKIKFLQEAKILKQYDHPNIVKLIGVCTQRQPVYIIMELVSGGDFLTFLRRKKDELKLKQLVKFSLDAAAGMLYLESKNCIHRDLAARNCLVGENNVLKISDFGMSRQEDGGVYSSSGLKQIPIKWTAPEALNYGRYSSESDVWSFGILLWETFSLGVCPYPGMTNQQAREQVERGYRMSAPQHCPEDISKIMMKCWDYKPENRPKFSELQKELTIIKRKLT
Test [4] addresses Vascular endothelial growth factor receptor 3 (Homo sapiens) (UniProt P35916). Briefly: Inhibition of recombinant human GST-tagged FLT4 (800 to 1297 residues) expressed in baculovirus expression system at 500 nM using Tyr 04 peptide as substrate incubated for 1 hr in presence of ATP at its Km concentration by Z'-LYTE assay relative to control.
The target of test [5] is Tyrosine-protein kinase FRK (Homo sapiens) (UniProt P42685). Put plainly: Inhibition of recombinant human GST-tagged full length FRK expressed in baculovirus expression system at 500 nM using Tyr 01 peptide as substrate incubated for 1 hr in presence of ATP at its Km concentration by Z'-LYTE assay relative to control.
Sequence of Tyrosine-protein kinase FRK (Homo sapiens) (P42685 whole entry): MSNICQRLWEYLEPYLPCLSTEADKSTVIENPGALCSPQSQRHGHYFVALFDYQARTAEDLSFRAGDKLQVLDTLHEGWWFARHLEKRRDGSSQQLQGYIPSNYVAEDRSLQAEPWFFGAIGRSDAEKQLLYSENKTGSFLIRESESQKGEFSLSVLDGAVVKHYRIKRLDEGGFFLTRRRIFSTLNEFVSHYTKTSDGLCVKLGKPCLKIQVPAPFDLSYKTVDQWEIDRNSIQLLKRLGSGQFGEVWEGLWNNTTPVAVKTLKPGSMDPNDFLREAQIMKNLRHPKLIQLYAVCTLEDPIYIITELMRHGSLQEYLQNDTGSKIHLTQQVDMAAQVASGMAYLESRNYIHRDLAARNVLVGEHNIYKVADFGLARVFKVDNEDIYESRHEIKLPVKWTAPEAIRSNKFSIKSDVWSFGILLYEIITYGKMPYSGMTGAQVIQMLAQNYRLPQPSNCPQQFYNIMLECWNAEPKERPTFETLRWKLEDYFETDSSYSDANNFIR
The target of test [6] is Glycogen synthase kinase-3 beta (Homo sapiens) (UniProt P49841). Briefly: Inhibition of recombinant full-length human His-tagged GSK3beta expressed in baculovirus expression system at 500 nM using Ser/Thr 09 as substrate incubated for 1 hr in presence of ATP at its Km concentration by Z'-LYTE assay relative to control.
Sequence of Glycogen synthase kinase-3 beta (Homo sapiens) (P49841 whole entry, looked up): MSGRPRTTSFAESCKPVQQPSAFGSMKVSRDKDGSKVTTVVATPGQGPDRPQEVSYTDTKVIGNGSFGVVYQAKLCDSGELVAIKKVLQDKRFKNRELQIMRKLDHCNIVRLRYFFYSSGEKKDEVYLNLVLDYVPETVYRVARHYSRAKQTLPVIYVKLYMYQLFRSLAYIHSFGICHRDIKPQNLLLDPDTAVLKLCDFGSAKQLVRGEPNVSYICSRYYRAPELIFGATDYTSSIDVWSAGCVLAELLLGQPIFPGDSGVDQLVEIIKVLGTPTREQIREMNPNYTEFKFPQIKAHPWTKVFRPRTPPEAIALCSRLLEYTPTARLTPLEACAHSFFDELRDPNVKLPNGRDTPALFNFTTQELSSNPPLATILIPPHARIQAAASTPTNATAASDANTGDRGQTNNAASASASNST
In test [7] the target is Mitogen-activated protein kinase 8 (Homo sapiens) (UniProt P45983). Put plainly: Inhibition of recombinant human His tagged human MAPK8 expressed in baculovirus expression system at 500 nM using Ser/Thr 04 as substrate incubated for 1 hr in presence of 100 uM ATP by Z'-LYTE assay relative to control.
Sequence of Mitogen-activated protein kinase 8 (Homo sapiens) (P45983 whole entry): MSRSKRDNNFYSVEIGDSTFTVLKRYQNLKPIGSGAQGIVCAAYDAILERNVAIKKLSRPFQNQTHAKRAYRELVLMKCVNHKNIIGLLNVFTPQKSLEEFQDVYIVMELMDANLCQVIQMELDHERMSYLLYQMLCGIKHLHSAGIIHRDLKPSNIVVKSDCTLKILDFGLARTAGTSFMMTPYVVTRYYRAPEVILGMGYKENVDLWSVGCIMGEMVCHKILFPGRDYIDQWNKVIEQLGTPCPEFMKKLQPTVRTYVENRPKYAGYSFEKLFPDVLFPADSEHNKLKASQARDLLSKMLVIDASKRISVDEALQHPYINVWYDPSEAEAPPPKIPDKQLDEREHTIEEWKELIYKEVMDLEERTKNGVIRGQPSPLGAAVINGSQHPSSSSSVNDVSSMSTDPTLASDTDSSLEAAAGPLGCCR
Test [8] has as its target T1, Serine/threonine-protein kinase Nek1 (Homo sapiens) (UniProt Q96PY6).
T1 sequence (whole entry): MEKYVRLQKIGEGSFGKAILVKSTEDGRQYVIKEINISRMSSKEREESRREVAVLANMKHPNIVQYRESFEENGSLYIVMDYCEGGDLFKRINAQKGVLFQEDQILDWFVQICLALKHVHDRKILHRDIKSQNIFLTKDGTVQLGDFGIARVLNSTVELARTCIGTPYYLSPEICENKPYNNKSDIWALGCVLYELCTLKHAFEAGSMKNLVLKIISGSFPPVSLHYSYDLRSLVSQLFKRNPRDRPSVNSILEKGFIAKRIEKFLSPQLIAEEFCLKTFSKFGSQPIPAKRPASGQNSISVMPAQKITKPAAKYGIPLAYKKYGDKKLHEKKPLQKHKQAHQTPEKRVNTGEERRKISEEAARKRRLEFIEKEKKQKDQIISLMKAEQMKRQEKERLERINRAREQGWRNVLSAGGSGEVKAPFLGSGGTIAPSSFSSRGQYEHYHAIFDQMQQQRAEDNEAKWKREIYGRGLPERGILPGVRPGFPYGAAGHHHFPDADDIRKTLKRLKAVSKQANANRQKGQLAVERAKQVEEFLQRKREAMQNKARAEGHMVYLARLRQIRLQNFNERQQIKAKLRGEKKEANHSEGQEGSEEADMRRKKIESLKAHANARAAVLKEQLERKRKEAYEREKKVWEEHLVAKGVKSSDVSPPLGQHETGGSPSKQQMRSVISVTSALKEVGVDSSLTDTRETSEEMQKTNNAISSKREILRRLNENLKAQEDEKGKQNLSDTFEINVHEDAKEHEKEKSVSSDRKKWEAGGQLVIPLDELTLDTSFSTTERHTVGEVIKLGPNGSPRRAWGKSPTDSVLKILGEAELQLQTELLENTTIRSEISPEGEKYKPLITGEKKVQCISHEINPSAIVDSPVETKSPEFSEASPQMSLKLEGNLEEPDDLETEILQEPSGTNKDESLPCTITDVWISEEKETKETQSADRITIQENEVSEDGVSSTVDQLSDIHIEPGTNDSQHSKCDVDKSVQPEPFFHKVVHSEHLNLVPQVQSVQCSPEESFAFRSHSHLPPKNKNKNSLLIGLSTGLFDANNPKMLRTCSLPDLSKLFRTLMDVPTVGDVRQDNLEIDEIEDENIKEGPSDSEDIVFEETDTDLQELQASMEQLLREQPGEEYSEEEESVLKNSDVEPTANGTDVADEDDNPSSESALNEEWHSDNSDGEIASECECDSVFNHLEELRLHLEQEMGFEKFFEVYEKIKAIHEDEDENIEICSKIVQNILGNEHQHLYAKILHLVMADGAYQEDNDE
Put plainly: Inhibition of recombinant human GST-tagged NEK1 (1 to 505 residues) expressed in baculovirus expression system at 500 nM using Ser/Thr 07 as substrate incubated for 1 hr in presence of ATP at its Km concentration by Z'-LYTE assay relative to control.

Test [9] addresses Platelet-derived growth factor receptor beta (Homo sapiens) (UniProt P09619). Put plainly: Inhibition of recombinant human His-tagged PDGFRbeta cytoplasmic domain expressed in baculovirus expression system at 500 nM using Tyr 04 as substrate incubated for 1 hr in presence of ATP at its Km concentration by Z'-LYTE assay relative to control.
Test [10] has as its target cAMP-dependent protein kinase catalytic subunit alpha (Homo sapiens) (UniProt P17612). Briefly: Inhibition of recombinant human His-tagged PRKACA (1 to 351 residues) expressed in Escherichia coli expression system at 500 nM using Ser/Thr 01 as substrate incubated for 1 hr in presence of ATP at its Km concentration by Z'-LYTE assay relative to control.
Test [11] addresses Protein kinase C beta type (Homo sapiens) (UniProt P05771). Put plainly: Inhibition of human full length GST tagged PRKCB1 expressed in insect cells at 500 nM using Ser/Thr 07 as substrate incubated for 1 hr in presence of ATP at its Km concentration by Z'-LYTE assay relative to control.
For test [12], the target named is Protein kinase C theta type (Homo sapiens) (UniProt Q04759). Put plainly: Inhibition of recombinant human His-tagged full length PRKCQ expressed in baculovirus expression system at 500 nM using Ser/Thr 07 as substrate incubated for 1 hr in presence of ATP at its Km concentration by Z'-LYTE assay relative to control.
Sequence of Protein kinase C theta type (Homo sapiens) (Q04759 whole entry, looked up): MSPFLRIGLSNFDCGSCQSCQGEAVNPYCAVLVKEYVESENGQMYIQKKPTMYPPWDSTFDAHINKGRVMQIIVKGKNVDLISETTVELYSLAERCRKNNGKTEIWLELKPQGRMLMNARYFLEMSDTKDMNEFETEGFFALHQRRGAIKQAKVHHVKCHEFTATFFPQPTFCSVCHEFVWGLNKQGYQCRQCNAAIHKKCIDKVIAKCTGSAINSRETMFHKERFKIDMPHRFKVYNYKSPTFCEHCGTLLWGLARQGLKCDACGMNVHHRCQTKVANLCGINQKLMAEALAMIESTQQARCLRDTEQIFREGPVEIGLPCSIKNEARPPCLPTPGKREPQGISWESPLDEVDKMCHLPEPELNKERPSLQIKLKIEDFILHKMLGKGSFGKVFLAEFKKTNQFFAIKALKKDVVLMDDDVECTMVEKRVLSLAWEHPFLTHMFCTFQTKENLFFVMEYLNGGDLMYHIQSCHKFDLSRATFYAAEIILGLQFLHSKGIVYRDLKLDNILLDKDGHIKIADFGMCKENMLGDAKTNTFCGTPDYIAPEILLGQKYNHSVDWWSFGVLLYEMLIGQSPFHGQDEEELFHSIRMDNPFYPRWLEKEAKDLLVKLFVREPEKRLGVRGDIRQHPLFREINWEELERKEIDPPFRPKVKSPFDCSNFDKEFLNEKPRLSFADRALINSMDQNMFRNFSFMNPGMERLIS

Sequence of Protein kinase C beta type (Homo sapiens) (P05771 2-671 limits assumed): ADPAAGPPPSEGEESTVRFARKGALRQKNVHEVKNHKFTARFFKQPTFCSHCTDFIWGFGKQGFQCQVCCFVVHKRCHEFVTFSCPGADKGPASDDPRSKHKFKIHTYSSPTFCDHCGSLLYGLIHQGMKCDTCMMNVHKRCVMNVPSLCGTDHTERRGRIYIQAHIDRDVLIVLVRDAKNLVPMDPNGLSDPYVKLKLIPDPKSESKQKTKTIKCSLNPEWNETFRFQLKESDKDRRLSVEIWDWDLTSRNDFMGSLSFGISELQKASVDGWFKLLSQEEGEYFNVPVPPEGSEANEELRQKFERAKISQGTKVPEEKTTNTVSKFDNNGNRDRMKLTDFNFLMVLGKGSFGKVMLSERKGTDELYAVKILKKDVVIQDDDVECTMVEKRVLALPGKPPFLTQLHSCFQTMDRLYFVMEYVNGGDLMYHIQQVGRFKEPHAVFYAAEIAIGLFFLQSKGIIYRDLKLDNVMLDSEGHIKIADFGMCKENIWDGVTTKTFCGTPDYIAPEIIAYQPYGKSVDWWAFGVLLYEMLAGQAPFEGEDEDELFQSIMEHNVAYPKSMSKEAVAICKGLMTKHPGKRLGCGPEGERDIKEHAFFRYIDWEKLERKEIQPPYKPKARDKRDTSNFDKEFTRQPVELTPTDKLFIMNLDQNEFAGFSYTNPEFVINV

One may read the inhibition as the change of the read-out against control, counted positive when it falls. On to `CCOc1ccccc1-c1cc2c(N[C@H](CO)c3ccccc3)ncnc2[nH]1`, for which the inhibition in test [1] is 14%; in test [2] it was 7%; in test [3], 12%; in test [4] it was 21%; in test [5] it was 32%; in [6], 13%. The inhibition in [7] turned out to be 17%; in test [8] it was 8%; in test [9], 8%; in test [10] it was 6%; in [11], 15%; in [12], 2%.

`COc1ccccc1-c1cc2c(N[C@H](CO)c3ccccc3)ncnc2[nH]1`: the inhibition in test [1] amounted to 29%; in test [2] it was 4%; in [3], 7%; in test [4], 12%; in [5], 36%; in test [6], 6%. Further, the inhibition in test [7] is 7%; in test [8] it was 1%; in [9], 0%; in test [10], -1%; in [11], 8%; in test [12] it was 5%.

`OC[C@@H](Nc1ncnc2[nH]c(-c3ccccc3)cc12)c1ccccc1`: the inhibition in [1] is 33%; in test [2], -2%; in [3], 6%; in test [4], 6%; in test [5] it was 33%; in test [6], 8%. Further, the inhibition in test [7] is 0%; in test [8], 0%; in [9], -1%; in [10] it was 1%; in test [11], 1%; in test [12], 12%.

`C#Cc1cccc(Nc2ncnc3cc(OCCOC)c(OCCOC)cc23)c1` [ERLOTINIB]: the inhibition was 38% in test [1]; 3% in test [2]; -1% in test [3]; 44% in test [4]; 16% in test [5]; -8% in test [6]. In addition, the inhibition in test [7] is 32%; in [8], -8%; in test [9] it was -5%; in [10] it was -10%; in test [11], -2%; in [12] it was -4%.

For the compound `CN(C)CCNCc1ccc(-c2cc3c(N[C@H](CO)c4ccccc4)ncnc3[nH]2)cc1F`, the inhibition in test [1] was 22%; in test [2], -4%; in [3] it was 7%; in test [4], 27%; in test [5] it was 49%; in test [6] it was 8%. Moreover, the inhibition came out at 19% in test [7]; 15% in [8]; 10% in test [9]; 4% in [10]; 17% in test [11]; 1% in test [12].

In the case of `OCC[C@@H](Nc1ncnc2[nH]c(-c3ccccc3)cc12)c1ccccc1`, the inhibition in test [1] was 17%; in test [2], -3%; in test [3] it was 10%; in test [4], 20%; in test [5], 14%; in test [6], 8%. Moreover, the inhibition is 27% in [7]; 13% in test [8]; 11% in [9]; 7% in test [10]; 6% in test [11]; 5% in test [12].
